Assays:
Assay type in all cases: cell-based
Settings in all cases: 18 hr at 30° C.
[1] = tested on: various species of the fungus Trichophyton; assay: in vitro zone of inhibition assay on potato-dextrose plates, Trichophyton
Description: In the assay, potato-dextrose plates (DIFCO®, Detroit, Mich.) were prepared using standard procedures and were inoculated individually with a confluent bed (about 1.7×10^6) of various species of the fungus Trichophyton. The tested fungal strains of Trichophyton species (available from the American Type Culture Collection (ATCC; 10801 University Boulevard, Manassas, Va. 20110-2209)) and their ATCC accession numbers, as well as the results of in vitro inhibition by Bacillus coagulans are illustrated in FIG. 3.
Inhibition by Bacillus coagulans was ascertained by placing on the plate approximately 1.5×10^6 colony forming units (CFU) in 10 μl of broth or buffer, plated directly in the center of the potato-dextrose plate, with one test locus per plate. The size of each test locus was approximately 8 mm in diameter and a minimum of three tests were performed for each inhibition assay. The negative control consisted of a […] volume of sterile saline solution, whereas the positive control consisted of a […] volume 2% Miconazole (1-[2-(2,4-dichlorophenyl)-2-[(2,4-dichlorophenyl)methoxy]methyl-[…] within an inert cream.
The plates were then incubated for approximately 18 hr at 30° C., at which time the zones of inhibition were measured. […]

four species of Candida = assay: in vitro zone of inhibition assay on potato-dextrose plates, Candida
Description: Each of the yeast pathogens and their ATCC accession numbers are illustrated in FIG. 4.
In the in vitro inhibition assay, potato-dextrose plates (DIFCO®, Detroit, Mich.) were prepared using standard procedures and were inoculated individually with a confluent bed about 1.7×10^6 of the four species of Candida. Inhibition by Bacillus coagulans was tested by placing on the plate about 1.5×10^6 colony forming units (CFU) in 10 μl of broth or buffer, plated directly in the center of the potato-dextrose plate with one test locus of about 8 mm in diameter per plate. A minimum of three tests were performed for each inhibition assay. The negative control consisted of a 10 μl volume of a sterile saline solution, whereas the positive control consisted of a 1 μl volume of Miconazole cream.
The plates were then incubated for approximately 18 hr at 30° C., at which time the zones of inhibition were measured. As designated herein, “excellent inhibition” means the zone was 10 mm or greater in diameter; and “good inhibition” means the zone was greater than 2 mm in diameter, but less than 10 mm in diameter.

[2] = tested on: various opportunistic bacterial pathogens; assay: in vitro bacterial pathogen screen, zone of inhibition (DIFCO BACTROL Disk Set)
Source text: The ability of Bacillus coagulans to inhibit various opportunistic bacterial pathogens was quantitatively ascertained by use of an in vitro assay. This assay is part of a standardized bacterial pathogen screen (developed by the U.S. Food and Drug Administration (FDA)) and is commercially available on solid support disks (DIFCO® BACTROL® Disk Set). To perform the assay, potato-dextrose plates (DIFCO®) were initially prepared using standard procedures. The plates were then individually inoculated with each of the bacteria (approximately 1.5×10^6 CFU) to be tested, so as to form a confluent bacterial bed.
Inhibition by Bacillus coagulans was subsequently ascertained by placing approximately 1.5×10^6 CFU of Bacillus coagulans in 10 μl of broth or buffer, directly in the center of the potato-dextrose plate, with one test locus being approximately 8 mm in diameter per plate. A minimum of three test loci were used for each assay. The negative control consisted of a 10 μl volume of a sterile saline solution, whereas the positive control consisted of a 10 μl volume of glutaraldehyde. The plates were then incubated for approximately about 18 hr at 30° C., at which time the zones of inhibition were measured. […]

With `Clc1ccc(COC(Cn2ccnc2)c2ccc(Cl)cc2Cl)c(Cl)c1` (stereo not drawn) [positive control] the “zone of inhibition diameter” value ([1]; 10 ml volume 2% Miconazole in inert cream, mean average of three tests) was “approximately 8.5 mm”, the “inhibition grade (zone of inhibition)” value [1] was “good inhibition (the zone was greater than 2 mm in diameter, but less than 10 mm in diameter)” and the “zone of inhibition diameter” value (four species of Candida; 1 μl volume of Miconazole cream, average of three tests) was “approximately 8.7 mm”. The “inhibition grade (zone of inhibition)” value (four species of Candida) was “good inhibition (the zone was greater than 2 mm in diameter, but less than 10 mm in diameter)”.

For `O=CCCCC=O` [glutaraldehyde], the “zone of inhibition diameter” value ([2]; 10 μl volume of glutaraldehyde, average of three tests) was “approximately 16.2 mm” and the “inhibition grade (zone of inhibition)” value [2] was “excellent”.

Source: patent publication US7807185B2, “Methods of inhibiting growth of bacteria, yeast, fungus, and virus with Pseudomonas lindbergii and Bacillus coagulans extracellular products” (Ganeden Biotech, Incorporated, priority 1997, dated 2010)
